Assay results taken from US20250127772A1, “SPECIFIC TETRADENTATE COPPER CHELATORS FOR THE TREATMENT OF WILSON'S DISEASE” (GUANGDONG UNIVERSITY OF TECHNOLOGY, priority 2023, published 2025).
Where “and” joins values, the source holds several entries; their conditions need not be identical. Equal entries are not always repeated.

Assays:
[1] = oral administration in adults, WD treatment; cited from earlier work
[2] = system: homozygous toxic-milk mouse model (TX model); type: in vivo; settings: TX mice
Excerpt: The selected drug-candidate TDMQ20 has been evaluated on the homozygous toxic-milk mouse model (TX model), a regular murine model of Wilson disease, suitable for evaluation of drug-candidates (for a review, see E. Reed et al., J. Neurochem., 146, 356-373, 2018). TX mice are bearing a naturally occurring point mutation on ATP7B resulting in a methionine changed for a valine, that causes the loss of copper transportation by this protein. C57BL/6 mice have no mutation on ATP7B and were used as control mice in the evaluation of TDMQ20. TX mice were provided by Sun Yat-Sen University (Guangzhou) and C57BL/6 mice by the Guangdong experimental animal center (Guangzhou) and all experiments were performed according to protocols approved by the Welfare Laboratory Animals Committee of the Guangdong University of Technology (approval n° GDUTXS2022083 dated on 3 Aug. 2022), in the framework of the 3 Rs principle.
[…] TX mice (WD) and 8-week-old C57BL/6 mice (Control) were used. TX mice (as WD, TDMQ-L, TDMQ-M, TDMQ-H groups, respectively) received the drug TDMQ20 by intragastric gavage twice a day for 14 consecutive days (at 0, 12.5, 25.0, 50.0 mg/kg in NaCl 0.9%). On the same schedule, C57BL/6 mice (as control group) received NaCl 0.9%. Treatment of WD mice with DPA (200 mg/kg) was used as comparison (DPA group). Six groups of 6 mice were used.
At the end of the treatment period, mice (10-week old) were placed in metabolic cages for 12 h in order to collect urine and feces. At the end of this 12 h-period, mice were anesthetized using 2.5% Avertin diluted in 0.9% NaCl at a dose of […] body weight and sacrificed. Cardiac blood was collected and left at room temperature for 30 minutes before centrifugation at 4° C. at 3000 r/min for 10 minutes to obtain serum samples. During this 30-min period, liver, kidney, brain and serum were also collected. Copper concentrations in urine and feces, serum, liver, kidney and brain were determined by inductively coupled plasma mass spectrometry (ICP-MS). Data analysis was carried out using SPSS Statistics software (version 26). Data are provided as mean values±standard error of the mean (SEM). Statistical analyses were performed using one-way ANOVA for liver, feces and urine, and by non-parametric test for serum, kidney, and brain. Differences with p>0.05 were considered as no significance (ns), * p<0.05, ** p<0.01, and *** p<0.001, n=6. Graph presentations were drawn with Prism GraphPad 8.0.2.

[3] = DPA 200 mg/kg/day gavage 14 days, mean of 6 mice ± SEM

| Structure (SMILES) | adverse effects observed with time [1] | copper concentration in serum versus untreated WD mice ([2]; DPA 200 mg/kg/day) | Cu content Brain [2, 3] [mg/kg] | Cu content Feces [2, 3] [mg/kg] | Cu content Kidney [2, 3] [mg/kg] | Cu content Liver [2, 3] | Cu content Serum [2, 3] [mg/L] | Cu content Urine [2, 3] [mg/L] |
| --- | --- | --- | --- | --- | --- | --- | --- | --- |
| CC(C)(S)[C@@H](N)C(=O)O [DPA, D-penicillamine, reference compound] | nephrotoxicity, aplasia, retinitis and neurological deterioration | not significantly higher | 3.7 ± 0.3 | 96 ± 7 | 5.4 ± 0.3 | 265 mg/kg and 265 ± 9 mg/kg | 0.39 ± 0.03 | 2.8 ± 0.2 |
| NCCNCCNCCN [trientine, triethylene-tetramine] | bone marrow depression, anemia, skin rash and hemorrhagic gastritis | – | – | – | – | – | – | – |
